Experimental data reported in patent publication US20110008447A1, “CARRIER COMPRISING NANODIAMOND” (NATIONAL CHIAO TUNG UNIVERSITY, priority 2009, published 2011).

Experiments:
[1] = tested on: A549 cells; assay: cytoskeleton and nuclei staining, confocal microscope; format: cell-based, human; details: 24 hours, taxol 50 nM
[2] = tested on: A549 cells; assay: flow cytometer cell cycle analysis; format: cell-based, human; details: in comparison with non-treated samples, p<0.01

CC(=O)O[C@H]1C(=O)[C@@]2(C)[C@H]([C@H](OC(=O)c3ccccc3)[C@]3(O)C[C@H](OC(=O)[C@H](O)[C@@H](NC(=O)c4ccccc4)c4ccccc4)C(C)=C1C3(C)C)[C@]1(OC(C)=O)CO[C@@H]1C[C@@H]2O [taxol]
mitosis of the cells ([1]; carrier 100 μg/mL): significantly enhancing mitosis | effect on microtubules, spindle and chromosomes ([1]; carrier or ND 100 μg/mL): induced polymerization of microtubules, inhibited formation of spindle, and inhibited separation of chromosomes | G1/G0 cell population [2]: significantly reduced
